Source: patent publication US8394398B2 (Abbott Laboratories, priority 1997, dated 2013)
Like-named read-outs stand apart in the source and are kept apart here.

Legend:
[1] = Phase 1 single escalating intravenous dose study, safety and pharmacokinetics; format: in vivo, human; settings: for C5 / concentration at 5 min: concentration at 5 minutes; for concentration at 5 min: male, human, whole blood, read-out: C5
Description: In the present, first-time-in-man study, the safety and pharmacokinetics of zotarolimus were investigated following intravenous bolus administration of zotarolimus over a 100 to 900 μg dose range. The intravenous bolus dose administration would mimic the most rapid unexpected release of zotarolimus from drug-coated stents in vivo.
This was a Phase 1, single escalating dose, double-blind, randomized, placebo-controlled, single-center study. Sixty (60) adult healthy males were divided into 5 IV dose groups of 100, 300, 500, 700, and 900 μg.
Subjects were randomly assigned to receive a single intravenous dose of zotarolimus or a matching intravenous placebo under fasting conditions, as shown in the dosing scheme shown in Table 9.
Higher doses were administered after evaluating the safety data from the preceding lower dose groups. The treatment groups were separated by at least 7 days. For safety reasons, each treatment group was divided into two cohorts of six subjects and the doses of the two cohorts of a group were separated by at least 1 day.
Doses were administered as IV bolus over 3 minutes, with 8 subjects. Four subjects received zotarolimus and 4 subjects received placebo in each dose group. Blood was sampled for 168 hours and concentrations of zotarolimus measured using LC-MS/MS with a LOQ of 0.20 ng/mL
Seven (7)-mL blood samples were collected by venipuncture into evacuated collection tubes including edetic acid (EDTA) prior to dosing (0 hour) and at 0.083 (5 min), 0.25, 0.5, 1, 2, 4, 8, 12, 16, 24, 36, 48, 72, 96, 120, 144, and 168 hours after dosing on Study Day 1.
Blood concentrations of zotarolimus were determined using a validated liquid/liquid extraction HPLC tandem mass spectrometric method LC-MS/MS). […] AU calibration curves had coefficient of determination (r^2) values greater than or equal to 0.9923.
Safety was evaluated based on adverse event, physical examination, vital signs, ECG, injection site and laboratory tests assessments.
Pharmacokinetic parameter values of zotarolimus were estimated using noncompartmental methods.
To investigate the questions of dose proportionality and linear pharmacokinetics, an analysis of covariance (ANCOVA) was performed. Subjects were classified by dose level, and body weight was a covariate. The variables analyzed included β, Vdβ, dose-normalized C5, and logarithms of dose-normalized AUC0-last and dose-normalized AUC0-inf. The primary test of the hypothesis of invariance with dose was a test on dose-level effects with good power for a monotonic function of dose. In addition, the highest and lowest dose levels were compared within the framework of the ANCOVA.

[2] = system: human coronary artery endothelial cells (hCaEC); assay: cytokine production by TNFα-treated human coronary artery endothelial cells (ELISA); format: cell-based; settings: TNFα (5 ng/ml), 24 hours
Description: (§1) Experiments were performed to determine the effects of zotarolimus, sirolimus and dexamethasone on the production of TNFα, IL-6 and MCP-1 by activated human monocytes In addition to monocytes and macrophages two other key cell types are involved in the etiology of restenosis, arterial smooth muscle and endothelial cells. These cells are activated and produce cytokines in response to TNFα. […] The activation of cytokine production by human coronary artery smooth muscle and endothelial cells following TNFα treatment was determined by measuring interleukine-8 (IL-8), MCP-1 and IL-6 production. As shown by the results of the experiments described below, the ability of these compounds to inhibit the production of cytokines supports their use in combination as anti-restenotic agents since these cytokines play a role in the development of restenosis. […] After 24 hours, the supernatants were carefully collected and TNFα, IL-6 and MCP-1 levels determined by ELISA. Primary cultures of human coronary artery endothelial and smooth muscle cells were obtained from Cambrex and maintained as described by the vendor. […] After 24 hours the supernatants were removed and replaced with media containing TNFα (5 ng/ml) in the presence and absence of various concentrations of zotarolimus, dexamethasone or sirolimus. The cells were incubated for 24 hours and the supernatants carefully removed and frozen until measurement. Cytokine levels were measured in the supernatants by sandwich ELISA.

[3] = system: human coronary artery smooth muscle cells (hCaSMC); assay: cytokine production by TNFα-treated human coronary artery smooth muscle cells (ELISA); format: cell-based; settings: hCaSMC, TNFα (5 ng/ml), 24 hours
Description: as §1

[4] = 100 μg single IV bolus, healthy males, blood
[5] = 300 μg single IV bolus, healthy males, blood
[6] = 500 μg single IV bolus, healthy males, blood
[7] = 700 μg single IV bolus, healthy males, blood
[8] = 900 μg single IV bolus, healthy males, blood

CO[C@H]1C[C@@H]2CC[C@@H](C)[C@@](O)(O2)C(=O)C(=O)N2CCCC[C@H]2C(=O)O[C@H]([C@H](C)C[C@@H]2CC[C@H](n3cnnn3)[C@H](OC)C2)CC(=O)[C@H](C)/C=C(\C)[C@@H](O)[C@@H](OC)C(=O)[C@H](C)C[C@H](C)/C=C/C=C/C=C/1C [zotarolimus]
C5 [1, 4]: 13.48 ng/mL | C5 [1, 5]: 36.71 ng/mL | C5/Dose [1, 6]: 0.11 ± 0.0005 ng/mL/µg | β (elimination rate constant) [1, 6]: 0.017 ± 0.003 h⁻¹ | CL [1, 7]: 3.18 L/h | C5 [1, 7]: 88.73 ng/mL | C5 [1, 8]: 110.78 ng/mL | concentration at 5 min [1, 4]: 13.5 ± 2.87 ng/mL | concentration at 5 min [1, 5]: 36.7 ± 9.82 ng/mL | concentration at 5 min [1, 7]: 88.7 ± 5 ng/mL | concentration at 5 min [1, 8]: 111 ± 15.9 ng/mL | tolerability ([1]; single IV doses of 100 to 900 μg, healthy males): well tolerated at all doses | most common treatment-emergent adverse events ([1]; single IV doses of 100 to 900 μg, reported by two or more subjects in any one treatment group): injection site reaction and pain | dose proportionality of pharmacokinetics ([1]; with respect to C5 and AUC0-inf, IV): dose-proportional over the 100-900 μg dose range | Maximal Inhibitory Activity, IL-6 [2]: − (− indicates maximal inhibitory activity less than 50% of control) | Maximal Inhibitory Activity, Il-8 [2]: − (− indicates maximal inhibitory activity less than 50% of control) | Maximal Inhibitory Activity, MCP-1 [2]: − (− indicates maximal inhibitory activity less than 50% of control) | Maximal Inhibitory Activity, IL-6 [3]: − (− indicates maximal inhibitory activity less than 50% of control) | Maximal Inhibitory Activity, Il-8 [3]: − (− indicates maximal inhibitory activity less than 50% of control) | Maximal Inhibitory Activity, MCP-1 [3]: − (− indicates maximal inhibitory activity less than 50% of control)
